Measurements taken from US11597708B2, “Inhibitors of heat shock factors and uses thereof” (HSF Pharmaceuticals SA, priority 2016, dated 2023).

Tests used:
HSF1 = molecular target: T1, HSF1 (Homo sapiens, UniProt Q00613); assay: Z74 cell-based reporter assay: heat-induced RLuc expression controlled by endogenous HSF1; details: Z74 cells; for inhibition at 12.5 µM: 12.5 μM IHSF, negative values marked *: compound enhanced rLuc activity, read-out: Inhibition of HSF1 activity at 12.5 μM IHSF [RLuc] (%); for inhibition at 25 µM: 25 μM IHSF, 2 h exposure, 43° C. 30 min, 6 h at 37° C., read-out: Inhibition of HSF1 activity at 25 μM IHSF [RLuc] (%); for IC50: inhibition of HSF1 activity [RLuc]
T1 construct: functionally linked to an hsp70b promoter and therefore controlled by endogenous HSF1; endogenous in cells; host or cells: HeLa cells / HeLa-derived cell line Z74
T1 sequence (Q00613 1-529): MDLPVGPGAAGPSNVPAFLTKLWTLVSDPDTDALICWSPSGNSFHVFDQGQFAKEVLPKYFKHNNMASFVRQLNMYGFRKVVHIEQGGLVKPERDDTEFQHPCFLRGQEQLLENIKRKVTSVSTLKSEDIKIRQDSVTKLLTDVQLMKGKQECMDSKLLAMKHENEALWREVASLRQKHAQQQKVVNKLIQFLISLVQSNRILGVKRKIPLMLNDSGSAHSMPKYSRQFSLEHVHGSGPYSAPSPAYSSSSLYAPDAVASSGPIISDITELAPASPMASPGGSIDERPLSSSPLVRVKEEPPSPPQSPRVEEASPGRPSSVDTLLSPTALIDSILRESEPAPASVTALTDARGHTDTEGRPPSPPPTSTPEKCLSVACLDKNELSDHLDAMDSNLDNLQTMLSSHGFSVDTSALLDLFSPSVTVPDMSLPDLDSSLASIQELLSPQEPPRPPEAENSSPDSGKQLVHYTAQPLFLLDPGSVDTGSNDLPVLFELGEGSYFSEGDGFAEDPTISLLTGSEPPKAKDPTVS
Excerpt: For screening this sublibrary, a cell-based assay was developed. We opted for a cell-based assay, because a cell-free assay would have had to be a DNA-binding assay. Such an assay would have limited discovery to molecules capable of interfering with the DNA-binding function of HSF1. This was thought to be too narrow a focus, considering that three of the four cavities identified in the HSF1 DNA-binding domain are not near the DNA interaction region. A straightforward cell-based assay, in which a HSF1-responsive gene would be assayed, was considered likely to be over-inclusive. Compounds would be scored as hits that inhibit any factor that is involved in HSF1 activation or prevents HSF1 deactivation. These factors include protein kinases, activators of protein phosphatases, factors affecting HSF1 mRNA stability, HSP90, HDAC6, etc. For developing a more discriminating cell-based assay, advantage was taken of the modular nature of HSF1. […] The cell-based assay developed (see below for the particular format employed) compared transactivation by wild type HSF1 and chimeric HSF1 in cells exposed to an HSF1-activating heat treatment in the presence of a sublibrary compound. A compound was scored as a hit, if it inhibited the activity of wild type HSF1 but not of chimeric HSF1.
The cell-based assay made use of HeLa-derived cell line Z74 that stably contains a gene for chimeric transcription factor LexA-(human) HSF1 under the control of a CMV early promoter, a firefly luciferase (flue) gene driven by a promoter responsive to the latter chimeric transcription factor and a Renilla luciferase (rluc) gene functionally linked to an hsp70b promoter and therefore controlled by endogenous HSF1 (FIG. 1A). As is shown in FIGS. 1B & C, the reporter genes responded similarly to heat dose, i.e., their activation depended on both duration of heat exposure and temperature of the exposure. […] Depletion of HSF1 (and LexA-HSF1) by siRNA supported the notion that this stress regulation is mediated by HSF1 (and LexA-HSF1). Therefore, the Z74 line was well suited for use in a screening assay aimed at discovering molecules that inhibit heat-induced HSF1 activity through interaction with the transcription factor's DNA-binding domain.
The compounds of the afore-mentioned biased sublibrary were screened in cell line Z74 at 12.5 and 25 μM concentrations. Typically, Z74 cultures in 96-well plates were exposed to compound or vehicle for 2 h, heat-treated at 43.0° C. for 30 min, and incubated further for 6 h at 37° C. to allow for accumulation of the luciferases. RLuc and FLuc activities were determined, typically using the Dual-Glo® Luciferase Assay System (Promega Corp., Madison, Wis.), and reading luciferase light counts in a Wallac Microbeta Trilux-1450 Luminometer (PerkinElmer, Waltham, Mass.). IHSF 001 was one of two library compounds that inhibited RLuc expression but not FLuc expression in heat-treated Z74 cells (Table 1; FIG. 2A). Therefore, IHSF 001 is an inhibitor of HSF1 function that specifically acts through the HSF1 DNA-binding domain. […] A corroborating experiment utilized a cell line containing an hsp70b promoter-driven fluc gene. […] IHSF 001 is (E)-ethyl 4-oxo-4-(thiazol-2-ylamino)but-2-enoate. The compound can be obtained from commercial sources (e.g., AKE-PB-90340538, Akos).

HSE DNA-binding activity = molecular target: T2, HSE DNA-binding activity (Homo sapiens, UniProt Q00613); assay: EMSA using extracts of heat-treated HeLa cells, in the presence of IHSF; format: biochemical; details: extracts of HeLa cells heat-treated at 43° C. for 30 min; concentrations as high as about 0.5 mM
T2 construct: functionally linked to an hsp70b promoter and therefore controlled by endogenous HSF1; endogenous in cells; host or cells: HeLa cells / HeLa-derived cell line Z74
T2 sequence (Q00613 1-529): T1 sequence (Q00613 1-529)
Experimental: Electrophoretic mobility shift assays (EMSA) using a radiolabeled HSE DNA probe were carried out to assess HSF1 DNA-binding activity in extracts of heat-treated (43° C./30 min) HeLa cells that had been exposed to different concentrations of compounds 058 or 115 (FIG. 3A, top panels). […] HSF1 degradation correlated well with the observed decrease in DNA-binding activity. Therefore, HSF1 degradation provides a sufficient explanation for the reduced HSE DNA-binding activity in cells treated with IHSF 058. […] EMSA were also carried out using extracts of HeLa cells that had been heat-treated at 43° C. for 30 min.

| inhibition at 12.5 µM (HSF1) | inhibition at 25 µM (HSF1) | HSE DNA-binding activity (EMSA) in the presence of IHSF (HSE DNA-binding activity) | IC50 (HSF1) | Structure (SMILES) |
| --- | --- | --- | --- | --- |
| 40% | 61% | no reduction | – | CCOC(=O)/C=C/C(=O)Nc1ccnc2ccccc12 [IHSF 050, (E)-3-(Quinolin-4-ylcarbamoyl)-acrylic acid ethyl ester] |
| 72% | 92% | no reduction | 9.6 µM | CCOC(=O)/C=C/C(=O)Nc1nc(C)c(-c2ccccc2)s1 [IHSF 051, (E)-3-(4-Methyl-5-phenyl-thiazol-2-ylcarbamoyl)-acrylic acid ethyl ester] |
| 45% | 72% | no reduction | 14.7 µM | CCOC(=O)/C=C/C(=O)Nc1ncc(-c2ccccc2C)s1 [IHSF 059, (E)-3-(5-o-Tolyl-thiazol-2-ylcarbamoyl)-acrylic acid ethyl ester] |
| 40% | 65% | no reduction | – | CCOC(=O)/C=C/C(=O)Nc1ncc(C#N)s1 [IHSF 057, (E)-3-(5-Cyano-thiazol-2-ylcarbamoyl)-acrylic acid ethyl ester] |
| 69% | 83% | no reduction | 7 µM | CCOC(=O)/C=C/C(=O)Nc1nc(C)cs1 [IHSF 011, (E)-3-(4-Methyl-thiazol-2-ylcarbamoyl)-acrylic acid ethyl ester] |
| 57% | 71% | no reduction | 7.4 µM | CCOC(=O)/C=C/C(=O)Nc1nc(C)c(C)s1 [IHSF 052, (E)-3-(4,5-Dimethyl-thiazol-2-ylcarbamoyl)-acrylic acid ethyl ester] |
| 53% | 85% | no reduction | – | CCOC(=O)/C=C/C(=O)Nc1ccnc(-c2ccccc2)c1 [IHSF 049, (E)-3-(2-Phenyl-pyridin-4-ylcarbamoyl)-acrylic acid ethyl ester] |
| 56% | 56% | – | – | CCOC(=O)/C=C/C(=O)Nc1nc2ccccc2s1 [IHSF 010, (E)-3-(Benzothiazol-2-ylcarbamoyl)-acrylic acid ethyl ester] |
| 30% | 53% | – | 23.5 µM | CCOC(=O)/C=C/C(=O)Nc1ccncc1 [IHSF 020, (E)-3-(Pyridin-4-ylcarbamoyl)-acrylic acid ethyl ester] |
